Legend:
[1] = test system: cytokines (GM-CSF, MCP-1, IFNγ, IFNβ, TNFa, IL2, IL4, IL8, IL10); assay: Release level of cytokines in serum and tumor tissue by MSD method, CT26 tumor model; type: in vivo, BALB/c mice; conditions: vs Vehicle
Experimental: CT26 cells were cultured in RPMI 1640 medium containing 10% fetal bovine serum at 37° C. in a 5% CO2 incubator. The cells were passaged routinely once a week. When the cell saturation reached 80%-90% and the cell number achieved the requirement, the cells were collected, counted and inoculated.
Animals were BALB/c female mice, 8 weeks old and weighing 18.5-22.9 g, which were provided by Shanghai Lingchang Biotechnology Co., Ltd.
0.1 mL (0.3×10^6) of CT26 cells were subcutaneously inoculated into each mouse. When the average tumor volume reached 101 mm^3, the mice were grouped and administered.
• 1) Quick-frozen tissue samples were taken out from the −80° C. refrigerator. • 2) On dry ice, part of the tumor tissue (about 50-100 mg) were cut out, and put into a 2 mL centrifuge tube with steel beads. Then the tube was added with 350 μL of cell lysis solution RIPA (in which 1% protease inhibitor and phosphatase inhibitor had been freshly added). • 3) The tissue was crushed with Tissue grinder at the highest frequency for 5 min. • 4) The tissue lysate was put on ice for 30 min. • 5) The tissue lysate was centrifuged at 12,000 rpm at 4° C. for 10 min. The supernatant was collected and put into a new 1.5 mL centrifuge tube.
• 1) The protein extract was diluted 50 times (2 μL of protein extract+98 μL of RIPA cell lysis buffer). • 2) Standard product and diluted samples were added at 10 μL/well in a 96-well transparent plate. • 3) Preparation of working solution: Reagent A and reagent B were mixed at a ratio of 50:1. 200 μL of the mixture was added to each well. • 4) The 96-well transparent plate was incubated at 37° C. for 30 min. • 5) The OD value at 562 nm was detected by a microplate reader, and then the tumor protein was quantified according to the OD result. • 6) The total protein concentration of the tumor samples was uniformly 2 mg/mL. • 7) The protein was quantified with BCA quantification kit. • 8) According to the quantitation results, the sample protein concentration was uniformly diluted to 2 μg/μL with RIPA lysis solution. • 9) MSD experiment was performed or the diluted samples were stored in a −80° C. refrigerator.
• 1) Preparation of standard product: 250 μL of Diluent 43 diluent was added to the standard product. The mixture was mixed well, and left to stand at room temperature for 15-30 min, and serially diluted by 4 times using Diluent 43 to obtain standard products Nos. 1-7. Diluent 43 was standard product No. 8. • 2) Sample dilution: The samples were diluted with Diluent 43. • 3) Antibody dilution: 100× antibody stock solution was diluted to 1×. • 4) Buffer preparation: 5× buffer was diluted to 1× with deionized water.
• 1) 200 μL of each biotin antibody was added to 300 μL of the designated linker. The resulting mixture was stirred by vortex and incubated at room temperature for 30 min. • 2) 200 μL of stop solution was added. The resulting mixture was stirred by vortex and incubated at room temperature for 30 min. • 3) 600 μL of each U-PLEX Linker-Coupled antibody solution (10×) was mixed into a tube and mixed by vortex. • 4) When the number of binding antibodies was less than 10, the solution was supplemented to 6 ml with stop solution. • 5) 50 μL of multiplex coating solution was added to each well. The plate was sealed with an adhesive board, and shaken at room temperature for 1 h. • 6) The wells were washed 3 times with 1× MSD wash Buffer at 150 μL/well. • 7) Standard product and detection antibody solutions were prepared. • 8) 25 μL of Diluent 43 was added to each well. • 9) 25 μL of prepared standard product, tissue sample or serum sample was added to each well. The plate was sealed with an adhesive board, and incubated at room temperature for 1 h. • 10) The wells were washed 3 times with 1× MSD wash Buffer at 150 μL/well. • 11) 50 μL of detection antibody solution was added to each well. […]

[2] = test system: murine colorectal cancer CT-26 cell line; assay: Azvudine in combination with PD-1 antibody in murine colorectal cancer CT-26 homograft tumor model; type: in vivo, BALB/c female mouse; conditions: for T/C (%) / TGI(%): tumor volume on the 17th day; for T/Cweight (%): 17th day
Description: Further, the anti-tumor effect of azvudine in combination with PD-1 antibody on BALB/c female mouse subcutaneously xenografted with murine colorectal cancer CT-26 cell line animal model was studied.

CT26 cells [3] = assay: Anti-tumor effect of azvudine in CT-26 tumor-bearing mice with severe immunodeficiency; type: in vivo; conditions: mice with severe immunodeficiency (B-NDG), o.p., QD×2 W
CT26 cells [4] = assay: Anti-tumor effect of azvudine in CT26 tumor-bearing mice with normal immune function; type: in vivo, BALB/c mouse; conditions: mice with normal immunity (BALB/c), o.p., QD×2 W
[5] = test system: immune cells in CT26 tumor; assay: Infiltration of immune cells in tumor by flow cytometry, CT26 tumor model; type: in vivo, BALB/c mice
Experimental: Tumor tissue was washed once with PBS, and removed of fat. The tumor tissue was quickly cut into small pieces. The chopped tumor tissue was transferred to a tube C containing 5 mL of digestive enzyme mixed solution. The tube C was put in a tissue processor, the tissue fragments were ensured to be submerged in the digestive enzyme, and the program m_imptumor_01_01 was performed. The sample was put in a water bath shaker at 37° C. for 30 min of digestion. After the digestion was completed, the program m_imptumor_01_01 was performed again, and then an appropriate amount of PBS containing 2% fetal bovine serum was added to terminate the digestion. The obtained mixture was filtered with a […] cell mesh to remove residual tissue, and washed with PBS. An appropriate volume of PBS was added according to the amount of cell precipitate to resuspend cells. Then the cells were gently blown evenly, and counted with a hemocytometer. An appropriate amount of cells were taken out and stained with antibodies.
The cells were resuspended with PBS to a concentration of 1×10^6 cells/100 μL. The cell suspension was added to a 96-well V-bottom plate at 100 μL per well. The plate was centrifuged at 450 g at 4° C. for 5 min, and the supernatant solution was discarded. The cells were resuspended with 100 μL of prepared Zombie NIR Live/Dead solution, then cultured at 4° C. in the dark for 30 min, and then washed twice with PBS. Then the cells in each well were resuspended with 50 μL of staining buffer containing Fc receptor inhibitor (1 μL of Fc receptor inhibitor+49 μL of staining buffer), and cultured at 4° C. in the dark for 5 min. Then the cells in each well were resuspended with 50 μL of Brilliant staining buffer containing Pacific Orange CD8, BV605 MHCII, BV650 CD25, BV750 CD45, BV785 Ly6C, AF488 CD11c, AF532 CD11b, PE-DZL594 CD49b, APC Ly6G, APC-Cy5.5 CD4, APC-Cy7 CD13, BV42 CD69 (or an isotype control antibody thereof), and cultured at 4° C. in the dark for 30 min. After staining was completed, the cells were washed twice with 200 μL of staining buffer.
The cells in each well were resuspended with 100 μL of Fixation/Permeabilization, and cultured at 4° C. in the dark for 30 min. After permeabilization was completed, the cells were washed twice with 200 μL of Permeabilization buffer. The cells were resuspended with 100 μL of Permeabilization buffer containing Fc receptor inhibitor, and cultured at 4° C. in the dark for 5 min. Then the cells were directly added with intracellular antibodies PE-Cy7 FoxP3 and PE Ki67 (or an isotype control antibody thereof), and cultured at 4° C. in the dark for 30 min. After staining was completed, the cells were washed twice with 200 μL of Permeabilization buffer, and resuspended with 200 μL of staining buffer. The flow cytometry detection was completed within 24 h.
The flow cytometry data was analyzed using FlowJo, SPSS and Graphpad Prism softwares, specifically including the following: • 1) The proportion of CD45+ cells in living cells of tumor tissue; • 2) The ratio of T, CD4+T, CD8+T, Treg, Myeloid, DC, NK, PMN-MDSC and M-MDSC in CD45+ cells; • 3) The ratio of CD8+T to Treg and the ratio of CD4+Teff to Treg; • 4) The CD69 positive rate and median fluorescence intensity (MFI) in T, CD4+T, and CD8+T cells; • 5) The Ki67 positive rate and median fluorescence intensity (MFI) in T, CD4+T, CD8+ and T cells; • 6) The number of T, CD4+T, CD8+T, Treg, Myeloid, DC, NK, PMN-MDSC, M-MDSC, and white blood cells per 100 mg of tumor tissue;
In this experiment, the CT26 tumor model was established on BALB/c mice, and the mice were treated with azvudine at different doses (0.25 mg/kg, 1 mg/kg). Tumor samples were collected. Then the proportion of each immune cell subset and the activation and proliferation of T, CD4+T and CD8+T were detected by flow cytometry.

B-cell lymphoma A20 = assay: Azvudine in combination with PD-1 antibody in B-cell lymphoma A20 tumor-bearing mouse model; type: in vivo
Description: The effect of azvudine in combination with PD-1 antibody on the B-cell lymphoma A20 tumor-bearing mouse model was further studied.

[6] = tumor tissue, 0.25 mg/kg and 1 mg/kg PO QD × 5D, certain dose-dependency
[7] = 0.25 mg/kg and 1 mg/kg PO QD × 5D, dose-dependent
[8] = after administration, 0.25 and 1 mg/kg, vs control group
[9] = high-dose group (1 mg/kg PO QD × 5D)

SMILES: [N-]=[N+]=N[C@]1(CO)O[C@@H](n2ccc(N)nc2=O)[C@@H](F)[C@@H]1O [Azvudine]
- release of MCP-1 ([1]; serum samples, 0.25 mg/kg PO QD × 5D, 2 h after last administration): significantly reduced
- release of IL8 ([1]; serum samples, 0.25 mg/kg and 1 mg/kg PO QD × 5D): significantly reduced
- other cytokines ([1]; serum samples, 0.25 mg/kg and 1 mg/kg): no significant change
- release of IFN-β [1, 6]: decreased
- release of IFNγ [1, 6]: increased
- release of TNFα [1, 6]: increased
- Tumor weight (mg) (On the 17th day) ([2]; Azvudine 0.25 mg/kg): 848 ± 210 mg
- Tumor volume (mm^3) on the 17th day ([2]; Azvudine 0.25 mg/kg p.o. QD × 18 days): 768 ± 74 mm^3
- Tumor volume (mm^3) on the 17th day ([2]; Azvudine 0.25 mg/kg p.o. QD × 18 days, listed as azvudine): 768 mm^3
- T/C (%) ([2]; Azvudine 0.25 mg/kg p.o.): 39.18%
- TGI(%) ([2]; Azvudine 0.25 mg/kg p.o.): 63.26%
- T/Cweight (%) ([2]; Azvudine 0.25 mg/kg): 42.52%
- Tumor weight (mg) (On the 17th day) ([2]; Azvudine 0.5 mg/kg): 386 ± 256 mg
- Tumor volume (mm^3) on the 17th day ([2]; Azvudine 0.5 mg/kg p.o. QD × 18 days): 347 ± 77 mm^3
- Tumor volume (mm^3) on the 17th day ([2]; Azvudine 0.5 mg/kg p.o. QD × 18 days, listed as azvudine): 347 mm^3
- T/C (%) ([2]; Azvudine 0.5 mg/kg p.o.): 17.63%
- TGI(%) ([2]; Azvudine 0.5 mg/kg p.o.): 84.85%
- T/Cweight (%) ([2]; Azvudine 0.5 mg/kg): 19.37%
- IR(%) (CT26 cells [3]; 0.25 mpk): 9.4%
- TGI(%) (CT26 cells [3]; 0.25 mpk): 13%
- IR(%) (CT26 cells [3]; 1 mpk): 49.2%
- TGI(%) (CT26 cells [3]; 1 mpk): 53%
- IR(%) (CT26 cells [4]; 0.25 mpk): 57.5%
- TGI(%) (CT26 cells [4]; 0.25 mpk): 63%
- IR(%) (CT26 cells [4]; 1 mpk): 84.5%
- TGI(%) (CT26 cells [4]; 1 mpk): 94%
- infiltration of immune cells in the tumor ([5]; 0.25 mg/kg and 1 mg/kg PO QD × 5D, vs control group): increased
- infiltration of CD8+T cells in the tumor [5, 7]: increase
- infiltration of NK cells in the tumor [5, 7]: increase
- other cell subsets after administration ([5]; 0.25 and 1 mg/kg, compared with the control group): no significant change
- expression level of CD69 in T, CD4+ T, and CD8+ T cells [5, 8]: no significant difference
- expression level of Ki67 in T, CD4+ T, and CD8+ T cells [5, 8]: no significant difference
- proportion of M-MDSC cells [5, 9]: significant reduction
- proportion of PMN-MDSC cells [5, 9]: significant reduction
- proportion of myeloid cells [5, 9]: significantly reduced
- ratio of CD4Teff/Treg [5, 9]: significantly increased
- ratio of CD8T/Treg [5, 9]: significantly increased
- CD8T/Treg and CD4Teff/Treg ratios and proportion of myeloid, M-MDSC, PMN-MDSC cells ([5]; low-dose group (0.25 mg/kg PO QD × 5D), compared with high-dose group): same trend
- IR(%) (B-cell lymphoma A20; Azvudine single drug, 1 mpk): 70.8%
- TGI(%) (B-cell lymphoma A20; Azvudine single drug, 1 mpk): 70%
- inhibitory activity on the B-cell lymphoma A20 tumor-bearing mice (B-cell lymphoma A20; administered alone): certain inhibitory activity
- TGI (B-cell lymphoma A20; azvudine 2 mg/kg): 88%

— patent publication US20240299383A1, “IMMUNOMODULATOR COMPOSITION COMPRISING AZVUDINE” (HENAN GENUINE BIOTECH CO., LTD., priority 2023, published 2024)
